Data reported in publication PMC11571215, “Optimization of Antiproliferative Properties of Triimine Copper(II) Complexes” (Journal of Medicinal Chemistry, 2024).
Read-outs that look alike come from different tables or passages of the source.

Experiments:
HCT116-DoxR cells = test: Autophagy induction (CYTO-ID green, flow cytometry); assay type: cell-based, human; settings: 48 h; complexes at IC50, Dox 6 μM, Cis 5 μM, rapamycin 1500 nM
Source text: Furthermore, previous studies have shown that complexes containing terpyridine derivatives have the ability to trigger both apoptosis and autophagy cell death mechanisms in cancer cells simultaneously.[38] This convergence of death pathways may arise from an adaptive response of the heterogeneous tumor cell population.[38] In this context, understanding the mechanism by which cells lose viability in the presence of the two Cu(II) complexes with the simultaneous induction of apoptosis and autophagy becomes crucial. Autophagy is a highly conserved catabolic process crucial for maintaining cellular homeostasis but is also associated with type II programmed cell death.[75] It involves intracellular degradation through autophagolysosomes responsible for breaking down luminal content and enabling recycling of cellular components.[76],[77] The assessment of the complexes’ ability to induce autophagy was conducted using flow cytometry, employing the CYTO-ID green detection reagent. This probe emits green fluorescence, marking the autophagic vacuoles within the cell. Higher fluorescence indicates a greater proportion of autophagolysosomes.[78] Three positive controls were used: Dox, Cis, and rapamycin (1500 nM), whose concentration was previously optimized for the HCT116-DoxR cell line in the laboratory.[64] Rapamycin is known to induce autophagy through its mechanistic target, mTOR.
Cell death via autophagy was evaluated using the Autophagy Assay Kit (ab139484; Abcam, Cambridge, United Kingdom), according to the manufacturers’ instructions. HCT116-DoxR cells were seeded at a density of 1 × 10^5 cells/mL in 6-well plates for 24 h, under the same conditions described before. After this incubation period, the culture medium was replaced with a fresh medium containing the copper complexes under evaluation at their IC50 concentration. A 0.1% (v/v) DMSO solution was used as the negative (vehicle) control, and 6 μM Dox and 5 μM Cis were used as positive controls. The cells were incubated again for 48 h. Rapamycin (1500 nM) was also added as a positive control, and it was added 18 h before the end of the 48 h incubation. After this period, the supernatant was discarded, and each well was washed with PBS 1×. Subsequently, cells were detached using TrypLE Express and washed with phenol red-free DMEM medium containing 5% (v/v) FBS. Cells were incubated with Green Stain Solution in phenol red-free DMEM medium containing 5% (v/v) FBS for 30 min at RT. After this period, the samples were washed and then resuspended in Assay Buffer 1×. The samples were analyzed using an Attune Acoustic Focusing Flow Cytometer (Life Technologies, Carlsbad, USA), and the results were analyzed via the Attune Cytometric software.

[1] = system: HCT116-DoxR cells (doxorubicin resistant colorectal carcinoma); test: MTS cell viability assay, HCT116-DoxR 2D; assay type: cell-based, human; settings: for IC50: 48 h of exposure
Description: (§1) The antiproliferative effect of the Cu(II) complexes in tumor and healthy cell lines was assessed through the MTS assay, a colorimetric method that is widely used to evaluate cellular viability, specifically mitochondrial viability.[53],[54] Cellular viability was determined after 48 h exposure to a concentration range (0.1–50 μM) of Cu(II) complexes in three tumor cell lines. […] Additionally, the viability of healthy primary dermal fibroblasts was performed as a comparison of the complexes’ antiproliferative effects in normal cells.
(§2) Cellular viability assays were performed using HCT116, HCT116-DoxR, and A2780 cancer cell lines as well as normal human primary fibroblasts. Cells were seeded at a density of 0.75 × 10^5 cells/mL in 96-well plates and incubated at 37 °C with 5% (v/v) CO2 for 24 h. After this incubation period, the copper complexes were accurately weighed and immediately dissolved in 100% (v/v) dimethyl sulfoxide (DMSO). Subsequently, the complexes were diluted to the final concentration using a cell culture medium. The culture medium in each well was replaced with fresh medium containing varying concentrations of the complexes (ranging from 0.01 to 50 μM). Negative controls contained culture medium with 0.1% (v/v) DMSO, and positive controls contained 0.4 μM Dox.
(§3) After an additional 48 h of incubation under the same conditions, cellular viability was assessed using the CellTiter 96 Aqueous One Solution Cell Proliferation Assay kit (Promega, Madison, USA). Metabolically active cells contain mitochondrial dehydrogenases that can reduce 3-(4,5-dimethylthiazol-2-yl)-5-(3-carboxymethoxyphenyl)-2-(4-sulfophenyl)-2H-tetrazolium, the inner salt (MTS) to formazan. The absorbance of formazan, measured at 490 nm in a microplate reader (Tecan Infinite M200, Tecan, Männedorf, Switzerland), is directly proportional to the number of viable cells.[104]
(§4) The cell viability versus concentration graphics were analyzed using Prism 8 software (GraphPad) to determine the half-maximal inhibitory concentration (IC50) of each complex for the respective cell line. Additionally, the selective index (SI) for each complex was calculated by dividing the IC50 of human fibroblasts by the IC50 values of the tested cancer cell lines.

[2] = system: HCT116-DoxR cells (doxorubicin resistant colorectal carcinoma); design: method as in PMID 37311060; settings: previously determined; read-out: IC50 for the HCT116-DoxR cell line; cited from earlier work
[3] = system: A2780 cells (ovarian carcinoma); design: method as in PMID 29688241; settings: previously published complex, cited from earlier work
[4] = system: HCT116 cells (colorectal carcinoma); design: method as in PMID 29688241; settings: previously published complex, cited from earlier work
[5] = system: normal human primary dermal fibroblasts; design: method as in PMID 29688241; settings: 48 h; previously published complex; cited from earlier work
[6] = system: HCT116 cells (colorectal carcinoma); test: MTS cell viability assay, HCT116 2D; assay type: cell-based, human
Description: as §1, §2, §3, §4

[7] = system: A2780 cells (ovarian carcinoma); test: MTS cell viability assay, A2780; assay type: cell-based, human
Description: as §1, §2, §3, §4

[8] = system: normal human primary dermal fibroblasts; test: MTS cell viability assay, normal fibroblasts; assay type: cell-based; settings: 48 h of exposure
Description: as §1, §2
After an additional 48 h of incubation under the same conditions, cellular viability was assessed using the CellTiter 96 Aqueous One Solution Cell Proliferation Assay kit (Promega, Madison, USA). […] The absorbance of formazan, measured at 490 nm in a microplate reader (Tecan Infinite M200, Tecan, Männedorf, Switzerland), is directly proportional to the number of viable cells.[104]
as §4

[9] = free ligands, at least two independent assays, read-out: IC50 of ligands HCT116-DoxR
[10] = 48 h of exposure, MTS, relative IC50, mean + SEM

In the case of `CO[C@H]1C[C@@H]2CC[C@@H](C)[C@@](O)(O2)C(=O)C(=O)N2CCCC[C@H]2C(=O)O[C@H]([C@H](C)C[C@@H]2CC[C@@H](O)[C@H](OC)C2)CC(=O)[C@H](C)/C=C(\C)[C@@H](O)[C@@H](OC)C(=O)[C@H](C)C[C@H](C)/C=C/C=C/C=C/1C` [rapamycin, Rapamycin], the “increase in autophagic vesicles compared to 0.1% DMSO control” value (HCT116-DoxR cells) is reported as “increase in green fluorescence intensity”.
`COc1ccc2cc(-c3cc(-c4ccccn4)nc(-c4ccccn4)c3)ccc2c1` [L1d] gave an IC50 [1, 9] of 200 ± 50 nM.
`COc1ccc(-c2cc(-c3nccs3)nc(-c3nccs3)c2)c2ccccc12` [L2c] gave an IC50 [1, 9] of about 11500 nM.
Work on `c1ccc(-c2cc(-c3ccc4ccccc4c3)cc(-c3ccccn3)n2)nc1` [L1b] yielded an IC50 [1, 9] of 240 ± 400 nM.
For `CC(C)(C)OO` [TBHP, Tert-butyl hydroperoxide], the IC50 [2] is given as 42000 nM.
Work on `c1ccc2c(-c3cc(-c4nccs4)nc(-c4nccs4)c3)cccc2c1` [L2a] yielded an IC50 [1, 9] of over 50000 nM.
For `c1ccc(-c2cc(-c3cccc4ccccc34)cc(-c3ccccn3)n2)nc1` [L1a], the IC50 [1, 9] was about 180 nM.
Work on `COc1ccc2cc(-c3cc(-c4nccs4)nc(-c4nccs4)c3)ccc2c1` [L2d] yielded an IC50 [1, 9] of about 14600 nM.
For `COc1ccc(-c2cc(-c3ccccn3)nc(-c3ccccn3)c2)c2ccccc12.[Cl][Cu][Cl]` [Cu1c], the IC50 ([3]; 48 h) is given as 950 ± 50 nM, the “SI A2780” value ([3]; IC50 fibroblasts / IC50 A2780) is given as 34.5 and the IC50 ([4]; 48 h) is given as 400 ± 60 nM. The “SI HCT116” value ([4]; IC50 fibroblasts / IC50 HCT116) was 82 and the IC50 [5] was 32780 ± 60 nM.
With `COc1ccc2cc(-c3cc4[n+]5c(c3)-c3cccc[n+]3[Cu-3]5([Cl])([Cl])[n+]3ccccc3-4)ccc2c1` [Cu1d] the IC50 [6, 10] was 360 ± 40 nM, the “SI HCT116” value ([6]; ratio IC50 fibroblasts / IC50 HCT116) was 17.8 and the IC50 [7, 10] was 480 ± 80 nM. The “SI A2780” value ([7]; ratio IC50 fibroblasts / IC50 A2780) was 13.4, the IC50 [8] was 6420 ± 500 nM and the IC50 ([1]; MTS, relative IC50, mean + SEM, read-out: IC50 HCT116-DoxR (2D)) was 310 ± 10 nM. The “SI HCT116-DoxR” value ([1]; ratio IC50 fibroblasts / IC50 HCT116-DoxR) was 20.7.
In the case of `c1ccc2cc(-c3cc(-c4nccs4)nc(-c4nccs4)c3)ccc2c1` [L2b], the IC50 [1, 9] is reported as over 50000 nM.
